This passage reports EC50, inhibition and IC50 results from patent US20120046357A1, “Benzamide and Napthamide Derivatives Inhibiting Nuclear Factor-Kappa (B) - (NK-kB)” (Profectus Biosciences, Inc., priority 2009, published 2012).

pEC50, pIC50: −log10 of the molar value.

In general, pEC50 refers to −log10 of the EC50, conventionally taken in molar units. The inhibition is the change of the read-out against control, counted positive when it falls. Broadly, the pIC50 is −log10 of the IC50, conventionally taken in molar units. Read a low pIC50 as a high IC50.

Experiment [1] has as its system IL-6 release from RAW264.7 cells. The experiment in a line: LPS-stimulated IL-6 release from RAW264.7 cells (ELISA). The following applies: Mus musculus, RAW264.7, RAW264.7 cells, 2 h pretreatment, 1 μg/mL LPS 20-24 h; read-out: RAW 264.7 IL-6 release EC50. In kind it is cell-based, mouse. On the procedure: RAW 264.7 cells were seeded at 4×10^4 cells per well n complete growth medium in 96 well white TC plates with clear bottoms one day prior to the assay. The next day the cells were washed once and 100 μL fresh growth media was added. Cells were pretreated with 0.5 μL from a 6 point 200× dilution series of the test compounds in DMSO for 2 hours. Following pretreatment with the drugs, the inflammatory response was induced by adding 5 μL of a 20 μg/mL solution of LPS (Sigma). The cells were incubated in the presence of the drugs and 1 μg/mL LPS for another 20-24 hours. Typically after treatment the total DMSO was […] of the culture volume and the final concentrations of the compounds were approximately: 40, 20, 10, 1, 0.2 and 0 μM depending on the MW of each compound. Modified dilution series were prepared as needed to get adequate dose response curves without changing the % DMSO. Samples were run in duplicate or triplicate and included DMSO treated control wells with and without LPS stimulation. Drugs with a known activity such as Parthenolide or DHMEQ were run as experimental controls. After 20-24 hours LPS activation, the media supernatant was collected from the cells and replaced with fresh media. The supernatant samples were cleared by centrifugation at 1,000×g for 5 minutes, transferred to fresh storage plates, and stored frozen at −30° C.
After determining the appropriate supernatant dilutions experimentally, mIL-6 levels in the supernatants were quantified using Quantikine™ mouse IL-6 immunoassay (R&D Systems) according to the manufacturer's protocol. […] diluted in Calibrator Diluent were added to 50 μL of Assay Diluent in microplate wells pre-coated with an anti-mouse IL-6 capture antibody. Controls included a calibrated positive IL-6 control sample, non-specific binding (NSB) wells containing Calibrator Diluent but no IL-6, and a recombinant mouse IL-6 standard dilution series (10-1000 pg/mL). The plates were incubated at room temperature for 2 hours with shaking and then washed 5 times with 400 μL 1× Wash Buffer. […] anti-mouse IL-6 antibody was added to each well to detect IL-6 captured on the plate. The plates were incubated at room temperature for 2 hours and then washed 5 times with 400 μL 1× Wash Buffer. Equal volumes of Color Reagents A and B were mixed and 100 μL of this HRP Substrate Solution was added to each well on the plate. The blue color was allowed to develop for 30 minutes and then the reaction was stopped using 100 μL of Stop Solution yielding a yellow color. Absorbance at 450 nm with a reference wavelength subtracted at 595 nm was recorded using a Becton-Dickinson DTX 880 Multimode Detector.
The concentration of mIL-6 in the unknown samples was determined from a curve-fit of the mIL-6 standard absorbance data and multiplying by the dilution factor. The maximum activity achieved in the absence of the inhibitor (DMSO+LPS treated wells) was arbitrarily given a value of 100%; likewise the minimum activity in the absence of the stimulant (no LPS) was assigned a value of 0%. Inhibition of the amount of mIL-6 cytokine released in the drug treated wells was calculated relative to the maximum activation in the DMSO+LPS treated control wells (ie. % inhibition=100−(drug+LPS treated)/(DMSO+LPS treated)). Dose response curves were used to determine the effective concentration to inhibit 50% of the mIL-6 cytokine released (IC50) by means of a SigmaPlot macro which fits a sigmoidal dose-response curve to the (log 10) μM concentration versus % inhibition. […] This technique yields an objective value for the IC50 provided that 50% inhibition was approached at the concentrations tested. FIG. 5 illustrates the effect of the compound of Example 10 on inhibiting IL-6 release.
Background: An ELISA detects its analyte on a solid surface through an enzyme-linked reagent.

Experiment [2] has as its target T1, RelB (Homo sapiens, UniProt Q01201).
T1 sequence (Q01201 1-579): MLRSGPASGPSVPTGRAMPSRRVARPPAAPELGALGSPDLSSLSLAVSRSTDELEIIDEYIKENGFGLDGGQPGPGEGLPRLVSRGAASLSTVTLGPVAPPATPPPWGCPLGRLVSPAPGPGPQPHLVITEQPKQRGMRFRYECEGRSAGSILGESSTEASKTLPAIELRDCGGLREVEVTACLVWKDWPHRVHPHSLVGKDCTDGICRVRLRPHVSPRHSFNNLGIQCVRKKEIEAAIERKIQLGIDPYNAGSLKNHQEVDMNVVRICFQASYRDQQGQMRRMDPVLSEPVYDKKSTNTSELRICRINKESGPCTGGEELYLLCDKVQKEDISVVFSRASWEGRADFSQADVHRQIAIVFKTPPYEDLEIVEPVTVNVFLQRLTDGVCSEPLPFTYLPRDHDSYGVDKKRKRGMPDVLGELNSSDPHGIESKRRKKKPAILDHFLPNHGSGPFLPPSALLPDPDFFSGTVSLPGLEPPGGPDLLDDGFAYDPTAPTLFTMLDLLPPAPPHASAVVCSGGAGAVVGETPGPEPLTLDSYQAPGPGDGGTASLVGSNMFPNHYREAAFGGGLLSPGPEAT
The experiment in a line: TransAM NF-κB family DNA binding ELISA, RelB. In kind it is biochemical. The following applies: for pIC50: binding to NF-κB consensus oligonucleotide, cells without % sign. The method, then:
(§1) The binding activity of NF-κB heterodimer or homodimer subunits from activated nuclear extracts or purified recombinant NF-κB proteins exposed to the drug compounds was evaluated using the TransAM NF-κB Family binding ELISA (Active Motif). 3-5 μg of nuclear extracts from TNFα activated Hela or Raji cells (Active Motif) or 20 ng of purified recombinant proteins (p65 and p50 from Active Motif, p52 from Santa Cruz) were incubated for 1 hour at room temperature with 20 μL drug compounds diluted in Complete Lysis buffer without DTT. Treated samples were then transferred to 30 μL Complete Binding Buffer (with DTT) in microplate wells pre-coated with the NF-κB consensus oligonucleotide. […] The plate was incubated for 1 hour at room temperature with gentle shaking and then washed 3 times with 200 μL 1× Wash Buffer. NF-κB p65, p50, p52, RelB, or c-Rel subunits bound to the plate were detected with 100 μL of the primary antibody (diluted 1:1000 in 1× Antibody Buffer) specific for that subunit. The plate was incubated for 1 hour at room temperature and then washed 3 times with 200 μL 1× Wash Buffer. Next, 100 μL of a HRP conjugated goat anti-rabbit antibody (diluted 1:1,000 in 1× Antibody Buffer) was added to each well. The plate was incubated for 1 hour at room temperature and then washed 4 times with 200 μL 1× Wash Buffer. 100 μL of room temperature Developing Solution was added to each well. The reaction was allowed to develop for 2-10 minutes until a medium dark blue color developed (depending on the subunit activity in the lot of extract or lot of recombinant protein used) and then the reaction was stopped with 100 μL Stop Solution yielding a yellow color. Absorbance was recorded using a Becton-Dickinson DTX 880 Multimode Detector at 450 nm with a reference wavelength subtracted at 620 nm. FIGS. 2, 3 and 4 illustrate the effect of Example 10 on inhibiting RelA, RelB and c-Rel binding to NF-κB sites.

For experiment [3], the target named is T2, p65 (RelA) (Homo sapiens, UniProt Q04206).
T2 construct: purchased Active Motif
Kind of experiment: TransAM NF-κB family DNA binding ELISA, p65. In kind it is biochemical. As to conditions: binding to NF-κB consensus oligonucleotide. The method, then:
as §1

T2 sequence (Q04206 whole entry): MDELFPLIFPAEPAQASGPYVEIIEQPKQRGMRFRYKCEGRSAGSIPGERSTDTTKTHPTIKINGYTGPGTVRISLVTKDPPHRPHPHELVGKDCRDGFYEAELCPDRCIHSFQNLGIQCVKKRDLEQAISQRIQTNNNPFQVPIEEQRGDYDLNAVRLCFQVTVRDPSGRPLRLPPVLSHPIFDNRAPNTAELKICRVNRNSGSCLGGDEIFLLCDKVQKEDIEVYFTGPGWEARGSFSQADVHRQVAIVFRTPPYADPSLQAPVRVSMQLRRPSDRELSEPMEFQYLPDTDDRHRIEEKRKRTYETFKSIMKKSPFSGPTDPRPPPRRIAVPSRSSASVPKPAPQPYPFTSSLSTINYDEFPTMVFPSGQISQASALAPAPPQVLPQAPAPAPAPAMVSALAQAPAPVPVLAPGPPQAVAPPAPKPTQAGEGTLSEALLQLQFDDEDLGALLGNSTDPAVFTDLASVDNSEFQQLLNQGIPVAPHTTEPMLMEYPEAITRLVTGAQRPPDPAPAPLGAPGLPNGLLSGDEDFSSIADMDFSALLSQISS

Regarding `Cc1cccc(C(=O)NC2=CC(=O)C3OC3C2O)c1O` (racemic) [Example 4, (±)-2-hydroxy-N-(2-hydroxy-5-oxo-7-oxabicyclo[4.1.0]hept-3-en-3-yl)-3-methylbenzamide], the pEC50 in experiment [1] is 6.12. In addition, the inhibition at 5 µM in experiment [2] was 9%. The compound also had a pIC50 in experiment [3] of 4.44.
In the case of `Cc1ccc(C(=O)NC2=CC(=O)C3OC3C2O)c(O)c1` (racemic) [Example 3, (±)-2-hydroxy-N-(2-hydroxy-5-oxo-7-oxabicyclo[4.1.0]hept-3-en-3-yl)-4-methylbenzamide], the pEC50 in experiment [1] was 6.32. The compound further showed an inhibition at 5 µM in experiment [2] of 10%. Further, the pIC50 in experiment [3] was 4.77.
As for `O=C(NC1=CC(=O)C2OC2C1O)c1cc(Br)ccc1O` (racemic) [Example 9, (±)-5-bromo-2-hydroxy-N-(2-hydroxy-5-oxo-7-oxabicyclo[4.1.0]hept-3-en-3-yl)benzamide], the pEC50 in experiment [1] was 5.19. The inhibition at 5 µM in experiment [2] amounted to 32%. This compound gave a pIC50 in experiment [3] of 4.75.
As for `COc1ccc2cc(O)c(C(=O)NC3=CC(=O)C4OC4C3O)cc2c1` (racemic) [Example 11, (±)-3-hydroxy-N-(2-hydroxy-5-oxo-7-oxabicyclo[4.1.0]hept-3-en-3-yl)-7-methoxy-2-naphthamide], in experiment [1], the pEC50 was 6.07. Also, the pIC50 was 5.00 in experiment [2] and 3.32 in experiment [3].
For `Cc1ccc(C(C)C)c(C(=O)NC2=CC(=O)C3OC3C2O)c1O` (racemic) [Example 17, (±)-2-hydroxy-N-(2-hydroxy-5-oxo-7-oxabicyclo[4.1.0]hept-3-en-3-yl)-6-isopropyl-3-methylbenzamide], the pEC50 in experiment [1] is 6.32. Besides, the pIC50 was 4.09 in experiment [2] and 3.53 in experiment [3].
